Data set [1] is described as follows: Serum concentration time course after i.p. injection of liposomal Zn-Pc in tumour-bearing mice. Type of data set: in vivo, BALB/c mice. The settings on record: 0.5 mg kg-1 i.p. in DPPC liposomes, mice bearing MS-2 fibrosarcoma. The text has this:
Br. J. Cancer (1987), 56, 597~~~~~~ ~~-60?TeMcilnPssLd,18 Pharmacokinetic studies with zinc(II)-phthalocyanine in tumour-bearing mice E. Reddi, G. Lo Castro, R. Biolo & G. Jori Department of Biology via Loredan 10, University of Padova, 1-35131 Padova, Italy. Summary Zn(II)-phthalocyanine (Zn-Pc) incorporated into unilamellar liposomes of dipalmitoyl- phosphatidylcholine has been injected intraperitoneally (0.5mgkg-1) to BALB/c mice bearing a transplanted MS-2 fibrosarcoma. […] Several normal tissues take up the drug within 3 hours after administration but release it almost completely after 24-48 hours. […] The results are discussed in terms of a possible use of Zn-Pc as a photosensitizer in the photodynamic therapy of tumours. Haematoporphyrin and haematoporphyrin derivative (HpD) are presently used as sensitizers for the specific destruction of tumours by photodynamic therapy (PDT) (Moan, 1986; Spikes & Jori, 1987). Although the technique is being applied for the treatment of a variety of neoplasias at both the experimental and clinical level (Dougherty, 1984), PDT is facing some problems and/or limitations. Thus, HpD as it is prepared from Hp (Lipson et al., 1961) is a complex mixture of porphyrins, whose composition is often not reproduced in different preparations and may change as a function of various experimental parameters (Bonnett et al., 1981; Dougherty, 1983). […] Moreover, PDT is usually performed by irradiation with 620-630 nm light; unfortunately, the molar absorptivity of Hp or HpD in this wavelength range is very low (< 103 M- 1 cm- 1). […] Pharmacokinetic studies The Zn-Pc was injected- i.p. into tumour-bearing mice after incorporation of the dye into small unilamellar liposomes of DPPC following the procedure described by Valduga et al. (1987): The Zn-Pc/DPPC ratio was 1:36 on a molar basis, as assessed from the weighed amount of phospholipid and absorbance measurements at 680 nm for Zn-Pc (E= 1.68 x 105 M-1 cm- at 673 nm). […]

The nature of data set [2]: Recovery of Zn-Pc from tumour and normal tissues of tumour-bearing mice. The data set is classed as in vivo, BALB/c mice. An excerpt:
Br. J. Cancer (1987), 56, 597~~~~~~ ~~-60?TeMcilnPssLd,18 Pharmacokinetic studies with zinc(II)-phthalocyanine in tumour-bearing mice E. Reddi, G. Lo Castro, R. Biolo & G. Jori Department of Biology via Loredan 10, University of Padova, 1-35131 Padova, Italy. Summary Zn(II)-phthalocyanine (Zn-Pc) incorporated into unilamellar liposomes of dipalmitoyl- phosphatidylcholine has been injected intraperitoneally (0.5mgkg-1) to BALB/c mice bearing a transplanted MS-2 fibrosarcoma. […] Several normal tissues take up the drug within 3 hours after administration but release it almost completely after 24-48 hours. […] The results are discussed in terms of a possible use of Zn-Pc as a photosensitizer in the photodynamic therapy of tumours. Haematoporphyrin and haematoporphyrin derivative (HpD) are presently used as sensitizers for the specific destruction of tumours by photodynamic therapy (PDT) (Moan, 1986; Spikes & Jori, 1987). Although the technique is being applied for the treatment of a variety of neoplasias at both the experimental and clinical level (Dougherty, 1984), PDT is facing some problems and/or limitations. Thus, HpD as it is prepared from Hp (Lipson et al., 1961) is a complex mixture of porphyrins, whose composition is often not reproduced in different preparations and may change as a function of various experimental parameters (Bonnett et al., 1981; Dougherty, 1983). […] Moreover, PDT is usually performed by irradiation with 620-630 nm light; unfortunately, the molar absorptivity of Hp or HpD in this wavelength range is very low (< 103 M- 1 cm- 1). […] The ability of phthalocyanines and some of their metal derivatives to act as efficient photosensitizers of simple biological substrates (Spikes & Bommer, 1986) and cultured cells (Ben-Hur & Rosenthal, 1985; Chan et al., 1986) has been documented. Finally, Rousseau et al. (1985) have reported that tetra- sulphophthalocyanines (TSPc) can accumulate in a mammary adenocarcinoma in rats. While tetrasulphophthalocyanines are suitable for in vivo studies because of their high water-solubility, serious problems may arise owing to the low degree of purity. Actually, the presently adopted procedures for sulfonation of phthalocyanines lead to mixtures of mono-, di-, tri- and tetra-sulphonated compounds (Linstead & Weiss, 1950; Moser & Thomas, 1983). In general, underivatized phthalocyanines can be obtained with a very high purity and display a good efficiency in the generation of activated oxygen species (Maillard et al., 1980; Wu et al., 1985). […] In this paper, we describe the pharmacokinetic behaviour of liposome-bound Zn- phthalocyanine injected into. BALB/c mice bearing a transplanted fibrosarcoma. Materials and methods Chemicals Zn2 +-phthalocyanine (Zn-Pc) was supplied by Ciba-Geigy (Switzerland) and used without further purification. […] Dipalmitoyl- phosphatidylcholine (DPPC), over 98% pure, was a product of Sigma Chemical Co.; sodium dodecylsulphate (SDS) and Sephacryl S-300 were purchased from Merck and Pharmacia, respectively. […] Pharmacokinetic studies The Zn-Pc was injected- i.p. into tumour-bearing mice after incorporation of the dye into small unilamellar liposomes of DPPC following the procedure described by Valduga et al. (1987): The Zn-Pc/DPPC ratio was 1:36 on a molar basis, as assessed from the weighed amount of phospholipid and absorbance measurements at 680 nm for Zn-Pc (E= 1.68 x 105 M-1 cm- at 673 nm). […]

The nature of data set [3]: Elimination pathway: analysis of faeces and urine of rats in metabolic cages. The settings on record: rapid clearance phase. Type of data set: in vivo, Wistar albino rats.
A further data set deals with serum lipoproteins. The data set is described as follows: Sephacryl S-300 chromatography of mouse serum after Zn-Pc administration. The data set is classed as in vivo, BALB/c mice. The conditions noted are these: sera taken between 1 h and 1 week after i.p. administration; second protein peak on Sephacryl S-300. The text has this:
Br. J. Cancer (1987), 56, 597~~~~~~ ~~-60?TeMcilnPssLd,18 Pharmacokinetic studies with zinc(II)-phthalocyanine in tumour-bearing mice E. Reddi, G. Lo Castro, R. Biolo & G. Jori Department of Biology via Loredan 10, University of Padova, 1-35131 Padova, Italy. Summary Zn(II)-phthalocyanine (Zn-Pc) incorporated into unilamellar liposomes of dipalmitoyl- phosphatidylcholine has been injected intraperitoneally (0.5mgkg-1) to BALB/c mice bearing a transplanted MS-2 fibrosarcoma. […] Several normal tissues take up the drug within 3 hours after administration but release it almost completely after 24-48 hours. […] The results are discussed in terms of a possible use of Zn-Pc as a photosensitizer in the photodynamic therapy of tumours. Haematoporphyrin and haematoporphyrin derivative (HpD) are presently used as sensitizers for the specific destruction of tumours by photodynamic therapy (PDT) (Moan, 1986; Spikes & Jori, 1987). […] Pharmacokinetic studies The Zn-Pc was injected- i.p. into tumour-bearing mice after incorporation of the dye into small unilamellar liposomes of DPPC following the procedure described by Valduga et al. (1987): The Zn-Pc/DPPC ratio was 1:36 on a molar basis, as assessed from the weighed amount of phospholipid and absorbance measurements at 680 nm for Zn-Pc (E= 1.68 x 105 M-1 cm- at 673 nm). […]

The test system of a further data set is HDL. The data set can be described thus: In vitro incubation of human serum with Zn-Pc incorporated into DPPC liposomes. The data set is classed as in vitro ADME. The settings on record: Reddi et al., unpublished results.
On the set-up of data set [4]: method as in Tomio et al. (1982). The settings on record: Wistar rats; ref Tomio et al. (1982); cited from earlier work.
Details of data set [5]: method as in Tralau et al., 1987. The settings on record: i.v., ref Tralau et al., 1987, cited from earlier work.

Results on three compounds are retold here after publication PMC2001878, “Pharmacokinetic studies with zinc(II)-phthalocyanine in tumour-bearing mice” (British Journal of Cancer, 1987).

“Also recorded” adds a separate entry of the source.

Regarding `[Zn+2].c1ccc2c(c1)-c1nc-2nc2[n-]c(nc3nc([n-]c4nc(n1)-c1ccccc1-4)-c1ccccc1-3)c1ccccc21` [Zn-Pc, Zn(II)-phthalocyanine], in data set [1], the “serum half-life (fast phase)” value is given as “approximately 9 hours” and the “time of maximum serum concentration after administration” value was 3 h. Moreover, in data set [1] (biphasic clearance), the “fraction of Zn-Pc eliminated from serum in the fast phase” value was “approximately 60%”. The “time of almost complete release from normal tissues” value in data set [2] (0.5 mg kg-1 i.p.) was in the range of 24 to 48 h. For the same compound, in data set [2] (MS-2 fibrosarcoma, 0.5 mg kg-1 i.p. in DPPC liposomes), the “time of maximum tumour concentration” value was 18 to 24 h. For the same compound, in data set [2] (at 18-24 h (24 h) after 0.5 mg kg-1 i.p., muscle = surrounding normal tissue), the “ratio between Zn-Pc levels in tumour and muscle” value was “approximately 7.5”. Further, the “time of uptake by several normal tissues after administration” value in data set [2] (liver, kidneys, spleen, lungs, muscle, 0.5 mg kg-1 i.p.) was at most 3 h. Also, in data set [2] (mouse skin, between 1 h and 168 h after administration, 0.5 mg kg-1 i.p.), the “skin concentration of Zn-Pc” value is reported as at most 0.1 pug g- I tissue. Also, the “elimination pathway from serum” value in data set [3] is given as “almost exclusively via the bile-gut pathway”. Besides, the “serum protein class transporting the drug” value with serum lipoproteins was “specifically transported by serum lipoproteins; also recorded: specifically associated with the second protein peak”. Also, the “fraction of drug bound by HDL” value in the data set on HDL was “at least 70%”.

Consider `CC1=C(CCC(=O)O)c2cc3[nH]c(cc4nc(cc5[nH]c(cc1n2)c(C)c5C(C)O)C(C)=C4C(C)O)c(C)c3CCC(=O)O` (centres unmarked) [haematoporphyrin], for which the “fraction of totally eliminated drug recovered in the faeces” value in data set [4] is on record as “at least 98%”.

With tetrasulphophthalocyanines [TSPc], the “time of accumulation in tumour” value in data set [5] (fibrosarcoma implanted s.c. in the flank) was 1 to 3 h. In data set [5], the “time to complete disappearance from serum” value is given as at most 3 h.
